Measured values reported in US7871790B2 (priority 2004, dated 2011).
Residues, ends and D or L forms follow the SMILES beside them. *: point of attachment. Cbz = O=C(OCc1ccccc1)*; CH2F = FC*

What was measured:
[1] = target: T1, ICE (caspase-1) (Mus musculus, UniProt P29452)
T1 sequence (P29452 119-296 limits assumed): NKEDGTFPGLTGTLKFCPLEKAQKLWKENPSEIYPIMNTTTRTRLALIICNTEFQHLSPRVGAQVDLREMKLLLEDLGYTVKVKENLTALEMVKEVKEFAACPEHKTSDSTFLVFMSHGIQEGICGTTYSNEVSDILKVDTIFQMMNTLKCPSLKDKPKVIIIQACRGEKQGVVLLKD
T1 sequence (P29452 315-402 limits assumed): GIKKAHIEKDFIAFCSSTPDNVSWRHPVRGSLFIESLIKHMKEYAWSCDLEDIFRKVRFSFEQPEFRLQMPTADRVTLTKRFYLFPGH

[2] = tested on: RAW 264.7 murine macrophage cell line; type: cell-based; conditions: 24 h

Molecule	Effect on cell viability [1]	Blocking of IL-1β production induced by anthrax LT ([1]; 24 hours) [%]	Blocking of IL-18 production induced by anthrax LT ([1]; 24 hours) [%]	Dose needed for induction of IL-1β comparable to that resulting from anthrax LT treatment [2] [EU/ml]	Induction of IL-18 [2]
COC(=O)CC[C@H](NC(=O)[C@H](Cc1c[nH]c2ccccc12)NC(=O)OCc1ccccc1)C(=O)N[C@@H](Cc1cnc[nH]1)C(=O)N[C@@H](CC(=O)OC)C(=O)CF [Z-WEHD-FMK] (Cbz-WE(OMe)HD(OMe)-CH2F)	no observable effect	~70	~70	–	–
lipopolysaccharide [LPS]	–	–	–	≥ 100	not induced
